The values that follow come from patent publication US20250090439A1, “COMPOSITION COMPRISING HYDRANGENOL AS ACTIVE INGREDIENT FOR IMPROVING HAIR OR SCALP CONDITION” (COSMAX BIO CO., LTD., priority 2021, published 2025).

The target in one data set is T1, 5α-reductase (Rattus norvegicus, UniProt P24008).
T1 construct: After centrifuging the homogenate at 10,000 xg for 10 minutes, the supernatant was […] to prepare an enzyme solution; from tissue; host or cells: liver of 7-week-old male SD rat (10,000 x g supernatant of homogenate)
T1 sequence (P24008 1-259): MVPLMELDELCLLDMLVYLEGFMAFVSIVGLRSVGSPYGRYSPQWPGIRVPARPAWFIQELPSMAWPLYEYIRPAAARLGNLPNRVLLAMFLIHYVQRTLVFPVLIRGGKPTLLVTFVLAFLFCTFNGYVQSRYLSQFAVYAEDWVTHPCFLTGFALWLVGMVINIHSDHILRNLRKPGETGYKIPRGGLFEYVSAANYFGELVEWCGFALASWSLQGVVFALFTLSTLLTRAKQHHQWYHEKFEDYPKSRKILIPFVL
As to the kind of experiment: 5α-reductase enzyme activity inhibition (rat liver homogenate, testosterone quantified by HPLC). The following applies: treated at 125 μg/ml, 250 μg/ml, or 500 μg/ml; 37° C., 30 minutes; FIGS. 7A and 7B. It is filed as biochemical. How it is done: 5α-reductase reduces testosterone to produce dihydrotestosterone (DHT). After reacting rat liver homogenate with testosterone, the ability to inhibit 5α-reductase enzyme activity was measured using a method of quantify testosterone.
First, a 7-week-old male SD rat was prepared and anesthetized using ethyl ether. After SD rats were laparotomised, the hepatic portal vein thereof was nicked, and cold STM buffer (270 mM sucrose, 10 mM Tris-HCl, pH7.5, 1 mM MgCl2, G-biosciences, USA) was injected into the left ventricle using a syringe. The injection was continued until the STM buffer was perfused into the liver and the color of the liver changed from dark red to light pink. Afterwards, the liver was removed, transferred to a beaker, cut with scissors, and homogenized after adding STM buffer in an amount three times that of the liver. After centrifuging the homogenate at 10,000 xg for 10 minutes, the supernatant was […] to prepare an enzyme solution. […] The dichloromethane layer was separated, concentrated, dissolved in 50% methanol, and quantified using high-performance chromatography. The 5α-reductase inhibition ability was calculated using the formula: 5α-reductase inhibition ability (%)=[1−(area value of sample-area value of blank sample)/(area value of test group-area value of blank sample)]×100.

The test system of data set [1] is human follicle dermal papilla cells (HFDPC). The experiment in a line: Cytotoxicity in dermal papilla cells (MTT assay). It is filed as cell-based. The following applies: 24 hours. Here is the method:
It was confirmed whether the Hydrangea serrata extract and hydrangenol obtained according to Examples 1 and 2 were cytotoxic to human follicle dermal papilla cells (HFDPC).
HFDPC cells were cultured in follicle dermal papilla cell growth medium including supplement mix (5% fetal calf serum, 0.5% bovine pituitary extract, 0.5 μg basic fibroblast growth factor, and 2.5 mg insulin) and 1% antibiotic antimycotic solution. HDFPC cell lines were seeded into a 96-well plate at a concentration of 1.0×10^4 cells/well and incubated in a CO2 incubator conditioned at 37° C., 95% humidity, and 5% CO2 for 24 hours. Subsequently, the medium was replaced with medium without supplement mix and was treated with samples of each concentration and after 24 hours of incubation, cell viability was measured by MTT assay. The MTT assay is a method to measure the amount of formazan formed from MTT reduced by the mitochondria of living cells. More specifically, 100 μl of 0.5 mg/mL MTT solution was applied to each cell and incubated for 4 hours. Then, the solution was completely removed and the absorbance of the plate dissolved in DMSO was measured at 540 nm.

The test system of another data set is HFDPC cell lines. The experiment in a line: Cell proliferation in dermal papilla cells (MTT assay). It is filed as cell-based, human. The following applies: treated for 3 and 6 days, 25 μg/ml and 50 μg/ml. Here is the method:
Based on the results of the dermal papilla cell toxicity test confirmed above, the cell proliferation effect of the Hydrangea serrata extract and hydrangenol obtained in Examples 1 and 2 was confirmed. HFDPC cell lines were seeded into a 96-well plate at a concentration of 1.0×10^3 cells/well and incubated in a CO2 incubator conditioned at 37° C., 95% humidity, and 5% CO2 for 24 hours. Subsequently, after treatment with samples at each concentration, cell proliferation was measured by MTT assay after 1, 3, and 6 days of incubation. More specifically, after treatment with samples of each concentration, the incubation was proceeded for 24, 72, and 144 hours, and then each cell was treated with 100 μl of 0.5 mg/ml MTT solution, and after 4 hours, the solution was completely removed and the plates dissolved in DMSO were measured at an absorbance of […].

Consider `O=C1OC(c2ccc(O)cc2)Cc2cccc(O)c21` (stereo not shown) [hydrangenol, 8-hydroxy-3-(4-hydroxyphenyl)-3,4-dihydroisochromen-1-one], for which, on 5α-reductase, the 5α-reductase inhibitory activity is on record as 5α-reductase inhibitory activity in a concentration-dependent manner. In addition, the “cytotoxicity (cell viability by MTT)” value in data set [1] (1.56, 3.12, 6.25, 12.5, 25, 50 and 100 μg/ml) is recorded as “no cytotoxicity was shown at all concentrations”. In addition, the cell growth entry in data set [1] (concentrations of 3.12 μg/ml to 100 μg/ml) was “significantly increase cell growth”. Moreover, the “cell growth (cell proliferation by MTT)” value in the data set on HFDPC cell lines is recorded as “cell growth was significantly increased”.
